Our source for the Ki and IC50 values is patent publication US11731943B2, “Therapeutic compounds, compositions and methods of use thereof” (priority 2016, dated 2023).

The target of experiment [1] is isolated recombinant JAK2 kinase domain (Homo sapiens (Human), UniProt O60674). The experiment is described as follows: JAK2 enzyme assay (Caliper LabChip, Ki). The experiment is classed as biochemical. The procedure, abridged: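 Recombinant human JAK1 or JAK2 kinase domain phosphorylating a 5-carboxyfluorescein-labelled JAK3-derived peptide; 30 min at 22 °C, stopped with EDTA (50 mM final). Phosphorylated product measured as a fraction of total peptide by Caliper LabChip mobility shift.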
Sequence of isolated recombinant JAK2 kinase domain (O60674 849-1124): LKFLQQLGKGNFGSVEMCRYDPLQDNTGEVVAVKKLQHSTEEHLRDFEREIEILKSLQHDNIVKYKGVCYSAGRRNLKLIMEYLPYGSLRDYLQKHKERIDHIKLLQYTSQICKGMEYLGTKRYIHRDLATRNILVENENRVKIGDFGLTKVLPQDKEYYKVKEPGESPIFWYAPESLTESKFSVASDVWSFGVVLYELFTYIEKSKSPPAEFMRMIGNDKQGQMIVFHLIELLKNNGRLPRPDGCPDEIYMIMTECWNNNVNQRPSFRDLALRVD

In experiment [2] the test system is JAK1-dependent STAT6 phosphorylation downstream of IL-13 stimulation in BEAS-2B human bronchial epithelial cells. As to the kind of experiment: JAK1 pathway assay in BEAS-2B cells (IL-13-pSTAT6, MSD). The experiment is classed as cell-based. To be noted: BEAS-2B cells, IL-13 stimulation, read-out: IL-13 p-STAT6 BEAS-2B IC50.
The target of experiment [3] is isolated recombinant JAK1 kinase domain (Homo sapiens (Human), UniProt P23458). The experiment is described as follows: JAK1 enzyme assay (Caliper LabChip, Ki). The class given is biochemical. To be noted: read-out: JAK1 Ki. The procedure, abridged: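 Recombinant human JAK1 kinase domain phosphorylating an N-terminally 5-carboxyfluorescein-labelled JAK3-derived peptide, 30 min at 22 °C, stopped with EDTA (50 mM final). Phosphorylated fraction of total peptide read by Caliper LabChip mobility shift; Ki from Morrison tight-binding fit corrected for ATP competition (Ki=Ki,app/(1+[ATP]/Km,app)).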
Sequence of isolated recombinant JAK1 kinase domain (P23458 875-1153): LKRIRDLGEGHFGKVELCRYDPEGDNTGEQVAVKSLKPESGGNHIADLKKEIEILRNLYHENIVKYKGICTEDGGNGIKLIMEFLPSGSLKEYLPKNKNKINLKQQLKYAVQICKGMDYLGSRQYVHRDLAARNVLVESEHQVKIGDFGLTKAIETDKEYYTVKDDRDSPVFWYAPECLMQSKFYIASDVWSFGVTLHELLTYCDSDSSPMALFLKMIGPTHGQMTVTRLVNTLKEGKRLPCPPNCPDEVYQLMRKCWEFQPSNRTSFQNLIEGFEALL

Like-named read-outs stand apart in the source and are kept apart here.

`N#CCC1(n2cc(C(N)=O)c(NC(=O)C3CC3)n2)CCN(Cc2ccc(-c3ccco3)cc2)CC1F` (stereo not drawn) [Example 215, 1-[4-(cyanomethyl)-3-fluoro-1-[[4-(2-furyl)phenyl]methyl]-4-piperidyl]-3-(cyclopropanecarbonylamino) pyrazole-4-carboxamide]: the figures for the inhibition constant Ki in experiment [1] and in experiment [3] were 0.25 nM and 0.24 nM, respectively. In experiment [2] (Homo sapiens, BEAS-2B), the IC50 (in general, the concentration needed to halve the response being measured) is 12 nM.
Take `Cc1ccc(OC2(C)CN([C@H]3CC[C@](CC#N)(n4cc(C(N)=O)c(NC(=O)C5CC5)n4)CC3)C2)cc1` [Example 300, 1-[1-(cyanomethyl)-4-[3-methyl-3-(4-methylphenoxy)azetidin-1-yl]cyclohexyl]-3-(cyclopropanecarbonylamino) pyrazole-4-carboxamide]: the Ki (in general, the dissociation constant of the complex between target and ligand, obtained from inhibition or displacement) in experiment [1] was 1.3 nM; in experiment [3], 1.5 nM. In addition, the IC50 in experiment [2] (Homo sapiens, BEAS-2B) is 43 nM.
`N#CCC1(n2cc(C(N)=O)c(NC(=O)C3CC3C#N)n2)CCN(CC2CCC(c3ccccc3)CC2)CC1F` (stereo not drawn) [Example 231, 3-[(2-cyanocyclopropanecarbonyl)amino]-1-[4-(cyanomethyl)-3-fluoro-1-[(4-phenylcyclohexyl)methyl]-4-piperidyl]pyrazole-4-carboxamide]: the Ki is 8.3 nM in experiment [1] and 0.36 nM in experiment [3]. Further, the IC50 in experiment [2] worked out at 19 nM.
On to `N#CCC1(n2cc(C(N)=O)c(NC(=O)C3CC3)n2)CCN(Cc2ccc(-c3ccccc3)cc2O)CC1` [Example 204, 1-[4-(cyanomethyl)-1-[(2-hydroxy-4-phenyl-phenyl)methyl]-4-piperidyl]-3-(cyclopropanecarbonylamino) pyrazole-4-carboxamide], for which the Ki turned out to be 1.8 nM in experiment [1] and 1 nM in experiment [3]. In addition, the IC50 in experiment [2] (Homo sapiens, BEAS-2B) came to 50 nM.
For `COC(=O)Nc1nn(C2(CC#N)CCC(Nc3ccc(-c4ccco4)cc3)CC2)cc1C(N)=O` (stereo not drawn) [Example 266, methyl N-[4-carbamoyl-1-[1-(cyanomethyl)-4-[4-(2-furyl)anilino]cyclohexyl]pyrazol-3-yl]carbamate] the same measures were 5 nM, 0.77 nM and 57 nM.
As to `CCn1ccc(-c2ccc(CN3CCC(CC#N)(n4cc(C(N)=O)c(NC(=O)C5CC5)n4)C(F)C3)c(F)c2)n1` (stereo not drawn) [Example 242, 1-[4-(cyanomethyl)-1-[[4-(1-ethylpyrazol-3-yl)-2-fluoro-phenyl]methyl]-3-fluoro-4-piperidyl]-3-(cyclopropanecarbonylamino) pyrazole-4-carboxamide], the Ki in experiment [1] was found to be 0.51 nM; in experiment [3], 0.6 nM. For the same compound, the IC50 in experiment [2] (Homo sapiens, BEAS-2B) is 55 nM.
For `COC(=O)Nc1nn(C2(CC#N)CCN(Cc3cc(C(F)F)ccc3F)CC2F)cc1C(N)=O` (stereo not drawn) [Example 283, methyl N-[4-carbamoyl-1-[4-(cyanomethyl)-1-[[5-(difluoromethyl)-2-fluoro-phenyl]methyl]-3-fluoro-4-piperidyl]pyrazol-3-yl]carbamate] the same measures were 2.9 nM, 1.4 nM and 77 nM.
Take `COC(=O)Nc1nn(C2(CC#N)CCN(Cc3cc(O)ccc3Cl)CC2F)cc1C(N)=O` (stereo not drawn) [Example 273, methyl N-[4-carbamoyl-1-[1-[(2-chloro-5-hydroxy-phenyl)methyl]-4-(cyanomethyl)-3-fluoro-4-piperidyl]pyrazol-3-yl]carbamate]: the Ki in experiment [1] came to 0.31 nM; in experiment [3], 0.33 nM. Also, the IC50 in experiment [2] (Homo sapiens, BEAS-2B) turned out to be 75 nM.
As for `COC(=O)Nc1nn(C2(CC#N)CCN(Cc3ccc(-c4ccccc4)c(O)c3)CC2F)cc1C(N)=O` (stereo not drawn) [Example 195, methyl N-[4-carbamoyl-1-[4-(cyanomethyl)-3-fluoro-1-[(3-hydroxy-4-phenyl-phenyl)methyl]-4-piperidyl]pyrazol-3-yl]carbamate], the Ki was determined as 0.15 nM in experiment [1] and 0.11 nM in experiment [3]. Further, in experiment [2] (Homo sapiens, BEAS-2B), the IC50 amounted to 15 nM.
For the compound `CCOP(=O)(OCC)c1ccc(Nc2nn([C@]3(CC#N)CC[C@@H](N4CC(C(F)(F)F)C4)CC3)cc2C(N)=O)cc1` [Example 303, Diethyl (4-((4-carbamoyl-1-((1R,4R)-1-(cyanomethyl)-4-(3-(trifluoromethyl)azetidin-1-yl)cyclohexyl)-1H-pyrazol-3-yl)amino)phenyl)phosphonate], the Ki in experiment [1] was determined as 0.66 nM; in experiment [3] it was 0.39 nM. In experiment [2] (Homo sapiens, BEAS-2B), the IC50 worked out at 34 nM.
With `N#CCC1(n2cc(C(N)=O)c(NC(=O)C3CC3)n2)CCN(Cc2cc(O)c(-c3ccccc3)cc2F)CC1F` (stereo not drawn) [Example 207, 1-[4-(cyanomethyl)-3-fluoro-1-[(2-fluoro-5-hydroxy-4-phenyl-phenyl)methyl]-4-piperidyl]-3-(cyclopropanecarbonylamino) pyrazole-4-carboxamide], the Ki in experiment [1] was determined as 0.13 nM; in experiment [3] it was 0.11 nM. For the same compound, the IC50 in experiment [2] (Homo sapiens, BEAS-2B) turned out to be 29 nM.
Turning to `C#CC1CC1C(=O)Nc1nn(C2(CC#N)CCN(Cc3ccc(-c4ccccc4)cc3)CC2F)cc1C(N)=O` (stereo not drawn) [Example 254, 1-[4-(cyanomethyl)-3-fluoro-1-[(4-phenylphenyl)methyl]-4-piperidyl]-3-[(2-ethynylcyclopropanecarbonyl)amino]pyrazole-4-carboxamide], the figures for the Ki in experiment [1] and in experiment [3] were 0.82 nM and 0.43 nM, respectively. The IC50 in experiment [2] (Homo sapiens, BEAS-2B) came to 43 nM.
Take `CC(C)S(=O)(=O)Nc1cccc(CN2CCC(CC#N)(n3cc(C(N)=O)c(NC(=O)C4CC4)n3)CC2)c1` [Example 94]: the figures for the Ki in experiment [1] and in experiment [3] were 21.8 nM and 4.1 nM, respectively. Moreover, the IC50 in experiment [2] (Homo sapiens, BEAS-2B) is > 1000 nM.
With `COC(=O)Nc1nn(C2(CC#N)CCN(Cc3ccc(-c4ccoc4)nc3F)CC2F)cc1C(N)=O` (stereo not drawn) [Example 239, methyl N-[4-carbamoyl-1-[4-(cyanomethyl)-3-fluoro-1-[[2-fluoro-6-(3-furyl)-3-pyridyl]methyl]-4-piperidyl]pyrazol-3-yl]carbamate], the Ki in experiment [1] is 0.89 nM; in experiment [3], 0.51 nM. For the same compound, in experiment [2] (Homo sapiens, BEAS-2B), the IC50 is 67 nM.
For `CCc1cccc(-c2ccc(CN3CCC(CC#N)(n4cc(C(N)=O)c(NC(=O)C5CC5)n4)CC3)cc2)c1` [Example 154, 1-[4-(cyanomethyl)-1-[[4-(3-ethylphenyl)phenyl]methyl]-4-piperidyl]-3-(cyclopropanecarbonylamino) pyrazole-4-carboxamide], the Ki in experiment [1] was 8.7 nM; in experiment [3] it was 1.5 nM. In experiment [2] (Homo sapiens, BEAS-2B), the IC50 came out at 116 nM.
As to `CC(=O)Nc1cccc(CN2CCC(CC#N)(n3cc(C(N)=O)c(NC(=O)C4CC4)n3)CC2)c1` [Example 76], the Ki in experiment [1] was found to be 36.9 nM; in experiment [3], 3.9 nM. In addition, in experiment [2] (Homo sapiens, BEAS-2B), the IC50 is > 1000 nM.
As for `CCOC1(C(F)(F)F)CN([C@H]2CC[C@@](CC#N)(n3cc(C(N)=O)c(NC(=O)C4CC4)n3)CC2)C1` (single isomer, unassigned) [Example 9], the inhibition constant (Ki) in experiment [1] was found to be 24.3 nM; in experiment [3], 2.2 nM. Besides, the IC50 in experiment [2] (Homo sapiens, BEAS-2B) was found to be 436 nM.
Turning to `CCOC1(C(F)(F)F)CN([C@H]2CC[C@](CC#N)(n3cc(C(N)=O)c(NC(=O)C4CC4)n3)CC2)C1` (single isomer, unassigned) [Example 10], the values for the Ki in experiment [1] and in experiment [3] were > 319 nM and > 562 nM, respectively. Moreover, the IC50 in experiment [2] (Homo sapiens, BEAS-2B) was > 1000 nM.
`COC(=O)Nc1nn(C2(CC#N)CCC(N3CC(F)(c4ccccc4)C3)CC2)cc1C(N)=O` (stereo not drawn) [Example 243, methyl N-[4-carbamoyl-1-[1-(cyanomethyl)-4-(3-fluoro-3-phenyl-azetidin-1-yl)cyclohexyl]pyrazol-3-yl]carbamate]: the values for the Ki in experiment [1] and in experiment [3] were 14 nM and 2.7 nM, respectively. In addition, in experiment [2] (Homo sapiens, BEAS-2B), the IC50 was 100 nM.
